Data set [1] deals with dutch belted rabbits. Nature of the data set: Intraocular pressure lowering after bolus intracameral (IC) injection at equimolar concentration. It is filed as in vivo, rabbit. From the text:
Due to the chemical similarity and the pharmacokinetics profile of brimonidine, 4-bromo-N-imidazolidin-2-ylidene-1-H-benzimidazol-5-amine and dexmedetomidine, it would be expected for these molecules to have a similar behavior following intravitreal bolus injection into the back of the eye.

For data set [2], the system named is dutch belted rabbits. The data set is described as follows: Intraocular pressure lowering after intravitreal (IVT) injection at equimolar concentration. It is filed as in vivo, rabbit.
For data set [3] the following is noted: rat, in vivo, po; cited from earlier work.
For data set [4] the following is noted: in vivo.
For data set [5] the following is noted: cited from earlier work.
The mark [6] stands for this setting: increasing amount of brimonidine.

The text below walks through data of patent US20140275197A1, “ALPHA-2 ADRENERGIC AGONIST FOR TREATING INTRAOCULAR PRESSURE AND OCULAR DISEASES THROUGH INTRAVITREAL AND INTRACAMERAL ROUTES” (priority 2013, published 2014).

“Also recorded” adds a separate entry of the source. Some results are limits rather than exact numbers.

Regarding `Brc1c(N=C2NCCN2)ccc2[nH]cnc12` [4-bromo-N-imidazolidin-2-ylidene-1-H-benzimidazol-5-amine], the “potency versus brimonidine and dexmedetomidine” value with dutch belted rabbits [1] (administered intracamerally at equimolar concentration, normotensive rabbits) is given as “at least 50 fold”. The “IOP decrease compared with brimonidine and dexmedetomidine” value in the data set on dutch belted rabbits [1] (bolus intracameral injection, equimolar concentration, rabbits) was “more efficacious at decreasing lop than brimonidine and dexmedetomidine; also recorded: outperforms brimonidine; also recorded: more effective than brimonidine and dexmedetomidine”. In addition, the “IOP decrease compared with brimonidine and dexmedetomidine” value in the data set on dutch belted rabbits [2] was “more efficacious at decreasing IOP than brimonidine and dexmedetomidine; also recorded: outperforms brimonidine; also recorded: more potent and efficacious than brimonidine”. In addition, the “amount found in urine” value in data set [3] is reported as “trace amounts”. For the same compound, in data set [4], the “level in the systemic circulation” value is “undetectable levels” and the “time for which the level in the aqueous humor is maintained” value was at least 8 h.
Regarding `Nc1cc(Cl)c(N=C2NCCN2)c(Cl)c1` [apraclonidine, 2,6-dichloro-N-imidazolidin-2-ylidene-benzene-1,4-diamine], in data set [5] (following topical dosing), the “clearance from the aqueous humor” value is “rapidly cleared”.
Take `Brc1c(NC2=NCCN2)ccc2nccnc12` [brimonidine, (5-bromo-quinoxalin-6-yl)-imidazolidin-2-ylidene-amine]: in data set [5] (following topical dosing), the “clearance from the aqueous humor” value is reported as “rapidly cleared”; the “passage through cornea and sclera” value is “readily pass through the cornea and sclera”. In data set [5] (setting [6]), the “effect of increasing the amount on half life in the aqueous humor” value is recorded as “does not improve its half life” and the “effect of increasing the amount on systemic exposure” value was “increased systemic exposure”.
